According to a flash point compilation (Sun et al. 2020):

SMILES | flash point [°C]
Cc1ccc(C(C)C)cc1 [p-isopropyltoluene] | 47
CCOC(=O)C(C)C [ethyl2-methylpropanoate] | 13
CCCCCCCBr [1-bromoheptane] | 61
CCCCC(=O)OC [methylpentanoate] | 22
CCCCCCC(=O)O [heptanoicacid] | 109
CC/C=C/C(=O)O [trans-2-pentenoicacid] | 102
CCC(=O)OCCC(C)C [isopentylpropanoate] | 46
CCC(C)S (configuration not stated) [2-butanethiol] | -23
N#Cc1ccccc1 [benzonitrile] | 70
CCc1ccc(C)c(C)c1 [4-ethyl-1,2-dimethylbenzene] | 58
Sc1ccccc1 [benzenethiol] | 51
C1CCC2OC2C1 (configuration not stated) [cyclohexeneoxide] | 24
C=CC(=O)OCCC [propylacrylate] | 24
CCC(C)CCC(C)C (configuration not stated) [2,5-dimethylheptane] | 15
C=C(C)C(C)(C)C [2,3,3-trimethyl-1-butene] | -17
CC=C(C)C [2-methyl-2-butene] | -45
C/C=C\CCC [cis-2-hexene] | -25
CCCC(C)C(C)C (configuration not stated) [2,3-dimethylhexane] | 5
CCC(C)CS (configuration not stated) [2-methyl-1-butanethiol] | 19
O=Cc1ccccc1 [benzaldehyde] | 62
C=CCCC [1-pentene] | -51
CCCCCC(=O)CC [3-octanone] | 51
CC(C)CO [2-methyl-1-propanol] | 28
C#CCCCCCC [1-octyne] | 16
C/C=C/C=O [trans-2-butenal] | 9
Nc1ccccc1 [aniline] | 70

SMILES | flash point [°C]
CC(C)CC(C)CC(C)C [2,4,6-trimethylheptane] | 31
O=[N+]([O-])c1ccccc1 [nitrobenzene] | 88
CC(C)CCSCCC(C)C [diisopentylsulfide] | 77
CC1=CC(=O)CC(C)(C)C1 [isophorone] | 84
CCCCCCCCCCCOC(C)=O [undecylacetate] | 111
CCCCCC(=O)O [hexanoicacid] | 102
OC1CCCCC1 [cyclohexanol] | 63
CCCC#N [butyronitrile] | 18
CCCCC#CCCCCC [5-undecyne] | 66
CCCCC(O)CO (configuration not stated) [1,2-hexanediol] | 122
CCCCCCCCCC(C)=O [2-undecanone] | 89
CCC(C)(C(C)C)C(C)C [3-ethyl-2,3,4-trimethylpentane] | 31
OCc1ccco1 [furfurylalcohol] | 75
CCCC(=O)CC [3-hexanone] | 23
OCCS [2-mercaptoethanol] | 68
C/C=C/C(C)C [trans-4-methyl-2-pentene] | -27
CCC(=O)CCc1ccccc1 [1-phenyl-3-pentanone] | 103
COCc1ccccc1 [benzylmethylether] | 53
CC(C)CC(C)C(C)C (configuration not stated) [2,3,5-trimethylhexane] | 15
COC(=O)C1CC1 [methylcyclopropanecarboxylate] | 18
CCC(C)CC(C)(C)CC (configuration not stated) [3,3,5-trimethylheptane] | 31
CCCc1ccc(O)cc1 [4-propylphenol] | 106
CCCCC(O)CC (configuration not stated) [3-heptanol] | 55
Clc1ccccc1 [chlorobenzene] | 28
CC(=O)CCC(C)=O [2,5-hexanedione] | 78
CCC(C)CO (configuration not stated) [2-methyl-1-butanol] | 43

SMILES | flash point [°C]
CCCCCCCC(O)CC (configuration not stated) [3-decanol] | 99
CCCCC(C)O (configuration not stated) [2-hexanol] | 46
CC(CC(C)(C)C)CC(C)(C)CC(C)(C)C (configuration not stated) [2,2,4,4,6,8,8-heptamethylnonane] | 95
NC1CCC1 [cyclobutylamine] | -4
CCOCOCC [diethoxymethane] | -5
CCCCCCCCN [octylamine] | 60
C=C(CC)CCC [2-ethyl-1-pentene] | -10
CCBr [bromoethane] | -20
CC1(C)CC(=O)CC(C)(C)C1 [3,3,5,5-tetramethylcyclohexanone] | 73
OCC(Cl)CCl (configuration not stated) [2,3-dichloro-1-propanol] | 93
CCC(C)(C)CC [3,3-dimethylpentane] | -19
CCSC [ethylmethylsulfide] | -18
CCCCCCCOC(C)=O [heptylacetate] | 67
CCC(C)(CC)CC [3-ethyl-3-methylpentane] | 3
CCC1CCC(=O)CC1 [4-ethylcyclohexanone] | 63
SCCCCl [3-chloro-1-propanethiol] | 43
CSCc1ccccc1 [benzylmethylsulfide] | 73
CCCCOC(C)=O [butylacetate] | 25
CCCOC(=O)c1ccccc1 [propylbenzoate] | 98
C=CCSSCC=C [diallyldisulfide] | 62
CC(C)c1cccc(C(C)C)c1 [1,3-diisopropylbenzene] | 76
CCCCCC1CCCCC1 [pentylcyclohexane] | 63
CCCCCC(C)CC (configuration not stated) [3-methyloctane] | 24
CCC(C)(C)CC(C)C [2,4,4-trimethylhexane] | 15
CN(C)C=O [N,N-dimethylformamide] | 57
CC#CC(C)(C)C [4,4-dimethyl-2-pentyne] | -10

SMILES | flash point [°C]
COC1CCCC1 [cyclopentylmethylether] | -1
C=CCCCC [1-hexene] | -26
CC(C)OCC1CO1 (configuration not stated) [isopropylglycidylether] | 33
COC(C)(C)C [tert-butylmethylether] | -28
CC=Cc1ccc(OC)cc1 [4-propenylanisole] | 96
CCCc1ccc(N)cc1 [4-propylaniline] | 103
CCCCC(CC)CN (configuration not stated) [2-ethyl-1-hexanamine] | 50
CCCCCCCCCC#N [decanenitrile] | 92
CCCCCCCCc1ccccc1 [octylbenzene] | 107
NCc1ccccc1 [benzylamine] | 65
CCC(=O)OC1CCCCC1 [cyclohexylpropanoate] | 68
CCC(C)CC(C)CC (configuration not stated) [3,5-dimethylheptane] | 15
Cc1ccoc1 [3-methylfuran] | -22
C=CC1CC=CCC1 (configuration not stated) [4-vinyl-1-cyclohexene] | 16
CCCCC(C)C(=O)O (configuration not stated) [2-methylhexanoicacid] | 105
CC(N)CN (configuration not stated) [1,2-propanediamine] | 33
CCCCCCCCCCOC(C)=O [decylacetate] | 104
CCCC(C)I (configuration not stated) [2-iodopentane] | 45
CC(C)COC(=O)c1ccccc1C(=O)OCC(C)C [diisobutylphthalate] | 185
CCCCC1CCCC1 [butylcyclopentane] | 32
CC(C)CN [isobutylamine] | -10
CCCC(C)CCC [4-methylheptane] | 5
CCCCOC(=O)CC [butylpropanoate] | 38
CCC(C)Nc1ccccc1 (configuration not stated) [N-sec-butylaniline] | 93
CCC#N [propionitrile] | 6
CCOC=O [ethylformate] | -19

SMILES | flash point [°C]
O=C1CCCCCC1 [cycloheptanone] | 56
CCCC(C)(C)C(C)C [2,3,3-trimethylhexane] | 15
CCC1(C)CCCC1 [1-ethyl-1-methylcyclopentane] | 6
CCCC(CC)C(C)(C)C (configuration not stated) [3-ethyl-2,2-dimethylhexane] | 38
CCc1ccccc1C [o-ethyltoluene] | 39
COc1ccc(C)cc1 [4-methylanisole] | 53
CCCOC=O [propylformate] | -3
CCC(C)CCO (configuration not stated) [3-methyl-1-pentanol] | 58
CCCOCC [ethylpropylether] | -25
ClCc1ccccc1 [benzylchloride] | 60
CC1=CCCO1 [2,3-dihydro-5-methylfuran] | -12
Fc1ccccc1 [fluorobenzene] | -15
CC(C)Cc1ccccc1 [isobutylbenzene] | 50
NC1CC1 [cyclopropylamine] | -25
CCCC(C)(C)CC [3,3-dimethylhexane] | -1
OC1CCCC1 [cyclopentanol] | 51
CCCCCBr [1-bromopentane] | 30
CCCC1CCCCC1 [propylcyclohexane] | 31
CCCCCC(C)(C)CC [3,3-dimethyloctane] | 41
CCCC(O)CO (configuration not stated) [1,2-pentanediol] | 105
CCCCCCCCCl [1-chlorooctane] | 58
CC(C)COCCO [2-isobutoxyethanol] | 51
CCC#CCCCCCC [3-decyne] | 52
